# Measured values from patent publication US6638919B2, “Antiviral purine derivatives” (University College Cardiff Consultants Limited, priority 2001, dated 2003).
# Entries after “also recorded” stand apart in the source; their conditions may differ. Structures can show the parent of a compound that is named as a salt. Where two headings read alike, the source gives them in different places.
# Assays:
# [1] = Solution stability of salt forms; assay type: physicochemical; conditions: % of parent (AUC) after 27 hr at room temperature
# Excerpt: (§1) The solubility and solution/solid state stability of three salt forms of (1S, 4R)-4-[2-amino-5(cyclopropylamino)-9(H)-purin-9-yl]-2-cyclopentene-1-methanol O-(phenyl ethoxy-L-alaninyl) phosphate
# [2] = Solid state stability of salt forms; assay type: physicochemical; conditions: % of parent (AUC) after two weeks at 60° C.
# Excerpt: as §1
# [3] = Solid type of salt forms; assay type: physicochemical
# [4] = tested on: HIV-1; test: Inhibition of HIV-1 giant cell formation in CEM cells; assay type: cell-based
# Experimental: (§2) Then 100 μL of the infected cell suspension was transferred to microtiter plate wells and mixed with 100 μL of the appropriate dilutions of the test compounds.
# HIV 1 CEM: EC50 in μM for inhibition of HIV1 in CEM cells
# [5] = tested on: HIV-2; test: Inhibition of HIV-2 giant cell formation in CEM cells; assay type: cell-based
# Experimental: as §2
# HIV1 CEM: EC50 in μM for inhibition of […] in CEM cells.
# HIV2 CEM: EC50 in μM for inhibition of HIV-2 in CEM cells
# [6] = tested on: HIV-2; test: Inhibition of HIV-2 in CEM.TK- cells; assay type: cell-based; conditions: read-out: HIV2 CEM. TK.
# Experimental: Cells were infected with HIV-1 as previously described [Balzarini et al. AIDS (1991), 5, 21-28]. Briefly, 5×10^5 cells per milliliter were infected with HIV-1 or HV-2 at 100 CClD50 (50% cell culture infective dose) per milliliter of cell suspension. Then 100 μL of the infected cell suspension was transferred to microtiter plate wells and mixed with 100 μL of the appropriate dilutions of the test compounds. After 4 days giant cell formation was recorded microscopically in the HIV-infected cell cultures [CEM].
# HIV2CEM.TK- EC50 μM for inhibition of IV-2 in CEM=cells
# [7] = tested on: CEM cells; test: Toxicity to mock-infected CEM cells (CC50); assay type: cell-based
# Experimental: as §2
# (§3) CC50 CEM: CC50 in μM for toxicity to CEM cells.
# (§4) CC50 CEM: CC50 μM for toxicity to CEM cells
# [8] = Toxicity to mock-infected CEM cells (CC50); assay type: cell-based; conditions: human; Table III; toxicity to CEM cells; read-out: CC50 CEN
# Experimental: as §2, §3, §4
# [9] = tested on: MSV; test: Inhibition of MSV; assay type: cell-based; conditions: read-out: EC50 MSV
# Experimental: EC50 MSV: EC50 μM for inhibition of MSV
# [10] = tested on: MSV; test: Minimum cytotoxic concentration in MSV assay; assay type: cell-based; design: unit not given here; conditions: Table III
# Excerpt: MCC MSV: minimum cytotoxic concentration in MSV essay.
# [11] = tested on: HIV-1; test: Inhibition of HIV-1 giant cell formation in CEM cells; assay type: cell-based; conditions: mean increase in potency of phosphoramidate versus its parent nucleoside for HIV 1 and HIV 2
# [12] = tested on: HIV-2; conditions: Table II, known data disclosed in PCT/GB96/00580; read-out: EC50/μM HIV-2 CEM; cited from earlier work
# [13] = tested on: HIV-1; conditions: read-out: EC50/μM HIV-1 CEM; Table II, known data disclosed in PCT/GB96/00580; cited from earlier work
# [14] = tested on: CEM cells; conditions: cited from earlier work
# [15] = Acid stability, dilute HCl pH1, simulated stomach conditions; assay type: physicochemical; conditions: 0.1N HCl pH1, 25° C.
# Experimental: Compounds were tested for their stability towards acid-mediated hydrolytic decomposition employing a test designed to simulate stomach conditions. Each compound was incubated in dilute HCl of pH1 for 24 hours at 25° C. 0.3 mg of compound were added to 1 mL of 0.1N HCl at 25° C. HPLC was run immediately for time=0 and at intervals up to approximately 24 hours.
# [16] = Biological stability in heparinised human plasma; conditions: for Half-life / % Remaining at 4 hours: heparinised human plasma, 37° C.
# Experimental: Each compound was incubated in normal heparinised human plasma at 37° C. for 4 hours. […] Drug concentrations were then determined by LC/MS/MS analysis using standard methods.
# [17] = Table III, EC50 for inhibition of HIV1 in CEM cells, read-out: HIV1 CBM
# [18] = Table III, EC50 for inhibition of HIV-2 in CEM cells, read-out: HIV2 CBM
# [19] = Table III, EC50 for inhibition of HIV-2 in CEM.TK- cells
# [20] = Table III, toxicity to CEM cells, read-out: CC50 CEN
# [21] = Human immunodeficiency virus 1, CCRF-CEM, Table III, EC50 for inhibition of HIV1 in CEM cells, read-out: HIV1 CBM
# [22] = Human immunodeficiency virus 2, CCRF-CEM, Table III, EC50 for inhibition of HIV-2 in CEM cells, read-out: HIV2 CBM
# [23] = Human immunodeficiency virus 2, CEM-TK(-)
compound,measurement,setting,value
"CCOC(=O)[C@H](C)NP(=O)(OC[C@@H]1C=C[C@H](n2cnc3c(NC4CC4)nc(N)nc32)C1)Oc1ccccc1.O=C(O)CCC(=O)O (stereo partly drawn) [Example 1, (1S,4R)-442-Amino-6-cyclopropylamino-9(purin-9-yl)-2-cyclopentene-1-methanol O-(phenylethoxy-L-alaninyl) phosphate Succinate Salt]",Stability (%) 0.1 N HCl,[1],66.0%
same,Stability (%) HPMC/Tween,[1],98.8%
same,Stability (%) PBS,[1],99.8%
same,Solid State Stability (%),[2],99.6%
same,Solid Type,[3],crystals
"COC(=O)[C@H](C)NP(=O)(OC[C@@H]1C=C[C@H](n2cnc3c(NC4CC4)nc(N)nc32)C1)Oc1ccc(Cl)cc1 (stereo partly drawn) [Compound 1620, (1S,4R)-4-(2-amino-6-cyclopropylamino-9H-purin-^9-yl)-2-cyclopentene-1-methanol O-[4-chlorophenyl-(methoxy-L-alaninyl)]-phosphate]",EC50,[4]; [17],0.014 µM
same,EC50,[5]; [18],0.063 µM
same,EC50,[6]; [19],13 nM
same,CC50,[7]; [20],4700 nM
"C[C@H](NP(=O)(OC[C@@H]1C=CC(n2cnc3c(NC4CC4)nc(N)nc32)C1)Oc1ccccc1)C(=O)OCCC(C)(C)C (stereo partly drawn) [Compound 1687, (1S,4R)-4-(2-amino6cyclopropylamino-9H-purin-9-yl)-2-cyclopentene-1-methanol O-[phenyl(3,3-dimethyl-]-butoxy-L-alaninyl)phosphate]",EC50,[4]; [21],0.2 µM
same,EC50,[5]; [22],0.2 µM
same,EC50,[6]; [23],140 nM
same,CC50,[8],10200 nM
same,EC50,"[9]; Table III, inhibition of MSV",2220 nM
same,MCCMSV,[10],>4
"COC(=O)[C@H](C)NP(=O)(OC[C@@H]1C=C[C@H](n2cnc3c(NC4CC4)nc(N)nc32)C1)Oc1ccccc1 (stereo partly drawn) [Compound 1490, (1S,4R)-4-(2-amino-6-cyclopropylamino-9H-purin-9-yl)-2-cyclopentene-1-methanol O-[phenyl-(methoxy-L-alaninyl)]-phosphate]",EC50,"[4]; CEM cells, giant cell formation after 4 days, Tables I and II, read-out: EC50/μM HIV-1 CEM",0.07 µM
same,EC50,"[5]; CEM cells, giant cell formation after 4 days, Tables I and II, read-out: EC50/μM HIV-2 CEM",0.09 µM
same,EC50,[5]; [18],0.05 µM
same,CC50,[7],13100 nM
same,EC50,"[9]; Table III, inhibition of MSV",1600 nM
same,MCCMSV,[10],>4
same,Fold Improvement,[11],30.2
"C[C@@H](NP(=O)(O)OC[C@@H]1C=C[C@H](n2cnc3c(NC4CC4)nc(N)nc32)C1)C(=O)O [Compound 1595, (1S,4R)-4-(2-amino-6-cyclopropylamino-9H-purin-9-yl)-2-cyclopentene-1-methanol O-(D-alaninyl)-phosphate diammonium salt]",EC50,[5]; [18],1.2 µM
same,EC50,[6]; [19],800 nM
same,CC50,[7]; [20],213000 nM
"COC(=O)C[C@H](NP(=O)(OC[C@@H]1C=C[C@H](n2cc(C)c(=O)[nH]c2=O)O1)Oc1ccccc1)C(=O)OC (some centres unmarked) [Compound 1078, 2′, 3′-dideoxy-2′, 3′-didehydrothymidine 5′-(phenyldimethoxyaspartyl) phosphoramidate]",EC50,[12],0.65 µM
same,EC50,[13],0.55 µM
same,CC50,[14],209000 nM
COC(=O)C(NP(=O)(OC[C@@H]1C=CC(n2cnc3c(NC4CC4)nc(N)nc32)C1)Oc1ccccc1)C(C)C (some centres unmarked) [Compound 1666],EC50,[4]; [21],3.5 µM
same,EC50,[5]; [22],4 µM
same,EC50,[6]; [23],3500 nM
same,CC50,[8],54100 nM
same,EC50,"[9]; Table III, inhibition of MSV",11800 nM
same,MCCMSV,[10],>20
"CCOC(=O)[C@H](C)NP(=O)(OC[C@@H]1C=C[C@H](n2cnc3c(NC4CC4)nc(N)nc32)C1)Oc1ccccc1.O=C(O)/C=C/C(=O)O (stereo partly drawn) [Example 3, (1S,4R)-4-(2-Amino-6cyclopropylamino-9(H)-purin-9-yl)-2-cyclopentene-1-methanol O-(phenylethoxy-L-alaninyl) phosphate Fumarate Salt]",Stability (%) 0.1 N HCl,[1],70.0%
same,Stability (%) HPMC/Tween,[1],98.3%
same,Stability (%) PBS,[1],98.5%
same,Solid State Stability (%),[2],97.1%
same,Solid Type,[3],crystals
"CCOC(=O)[C@H](C)NP(=O)(OC[C@@H]1C=C[C@H](n2cc(C)c(=O)[nH]c2=O)O1)Oc1ccccc1 (some centres unmarked) [Compound 951, 2′, 3′-dideoxy-2′, 3′-didehydrothymidine 5′-(phenylexthoxyalaninyl) phosphoramidate]",EC50,[12],0.07 µM
same,EC50,[13],0.1 µM
same,CC50,[14],5500 nM
CCC(CC)OC(=O)[C@H](C)NP(=O)(OC[C@@H]1C=CC(n2cnc3c(NC4CC4)nc(N)nc32)C1)Oc1ccccc1 (some centres unmarked) [Compound 1685],EC50,[4]; [21],1.6 µM
same,EC50,[5]; [22],2 µM
same,EC50,[6]; [23],12500 nM
same,CC50,[8],19700 nM
same,EC50,"[9]; Table III, inhibition of MSV",10100 nM
same,MCCMSV,[10],>20
"COC(=O)[C@H](C)NP(=O)(OC[C@@H]1C=C[C@H](n2cnc3c(N)ncnc32)O1)Oc1ccccc1 (some centres unmarked) [Compound 1001, 2′, 3′-dideoxy-2′, 3′-didehydroadenosine-5′-(phenylmethoxyalaninyl) phosphate]",time to disappearance in acid,[15],< 1 min
same,Compound left (%),[15]; time 0 hr,0%
same,Compound left (%),[15]; time 17 hr,0%
same,Half-life,[16],4.6 h
same,% Remaining at 4 hours,[16],52%
"CCOC(=O)[C@H](C)NP(=O)(OC[C@@H]1C=C[C@H](n2cnc3c(NC4CC4)nc(N)nc32)C1)Oc1ccccc1 (stereo partly drawn) [Compound 1587, (1S,4R)-4-(2-amino-6cyclopropylamino-9H-purin-9-yl)-2-cyclopentene-1-methaanol O-[phenyl-(ethoxy-L-alaninyl)]-phosphate]",EC50,[4]; [17],0.07 µM
same,EC50,[5]; [18],0.06 µM
same,CC50,[7]; [20],12100 nM
same,acid stability in words,[15]; after 22 hours,remained in tact
same,Compound left (%),[15]; time 0 hr,100%
same,Compound left (%),[15]; time 22 hr,77%
same,Stability (%) 0.1 N HCl,[1],69.1%
same,Stability (%) HPMC/Tween,[1],97.6%
same,Stability (%) PBS,[1],98.5%
same,Solid State Stability (%),[2],93.7%
same,Solid Type,[3],Amorphous; also recorded: Hygroscopic
same,Half-life,[16],26 h
same,% Remaining at 4 hours,[16],91%
same,stability advantage over each of compounds 1001 and 1093,"[16]; human plasma, Table V data",6 fold
COC(=O)[C@@H]1CCCN1P(=O)(OC[C@@H]1C=CC(n2cnc3c(NC4CC4)nc(N)nc32)C1)Oc1ccccc1 (some centres unmarked) [Compound 1719],EC50,"[4]; Human immunodeficiency virus 1, CCRF-CEM, read-out: HIV1 CBM",4 µM
same,EC50,"[5]; Human immunodeficiency virus 2, CCRF-CEM, read-out: HIV2 CBM",5.5 µM
same,CC50 at 4 days,[8],19400 nM
same,EC50,[9],11600 nM
same,MCCMSV,[10],≧100
"CCOC(=O)[C@H](C)NP(=O)(OC[C@@H]1C=C[C@H](n2cnc3c(NC4CC4)nc(N)nc32)C1)Oc1ccccc1.O=C(O)CCCC(=O)O (stereo partly drawn) [Example 4, (1S,4R)-4-(2-Amino-6-cyclopropylamino-9(H)-purin-9-yl)-2-cyclopenten-1-methanol O-(phenylethoxy-L-alaninyl) phosphate Glutarate Salt]",Stability (%) 0.1 N HCl,[1],69.3%
same,Stability (%) HPMC/Tween,[1],98.6%
same,Stability (%) PBS,[1],99.9%
same,Solid State Stability (%),[2],98.9%
same,Solid Type,[3],crystals
